Series [1] in a line: clinical. The settings on record: human, in vivo. The method, then:
This was a Phase 1, open-label, one-sequence crossover, drug-interaction study to evaluate and compare the PK of repaglinide when administered alone and concomitantly with OPC (micronized). Subjects received a single dose of repaglinide 0.5 mg on Days 1 and 15 at approximately 0800 hours. In addition, subjects received OPC 50 mg once daily on Days 2 through 15 at approximately 0800 hours.
Subjects were required to fast overnight from midnight (2400 hours) until 2 hours postdose on Days 1 through 15. Blood samples for pharmacokinetic analysis of OPC and its metabolites and for repaglinide were collected at scheduled times during the study. Safety and tolerability assessments were conducted at scheduled times during the study.
Blood samples to determine repaglinide plasma concentrations were collected on Days 1 and 15 at approximately 30 minutes prior to repaglinide dosing and at 0.25, 0.5, 0.75, 1, 1.5, 2, 3, 4, 5, 6, 8, 10, 12, and 24 hours post-repaglinide dosing.
PK parameters for OPC and its metabolites and repaglinide were calculated using non-compartmental methods.
A statistical assessment of the drug-drug interaction between repaglinide and opicapone is provided below. A repeated measures linear mixed model with fixed effect for treatment and random effect for subject was utilized. An unstructured variance-covariance matrix was assumed for the mixed model analysis. Geometric means (GM), ratios of geometric means (GMR), and their confidence intervals (CI) are shown on the original scale of measurement. Within-Subject CV was calculated as 100*sqrt[(sA2+sC2−2sAC)/2], where sA2 and sC2 are the estimated variances on the log scale for the two treatments, and sAC is the corresponding estimated covariance.

For series [2] the following is noted: cited from earlier work.
Series [3] addresses T1, CYP2C8 (Homo sapiens, UniProt P10632).
T1 sequence (P10632 1-490): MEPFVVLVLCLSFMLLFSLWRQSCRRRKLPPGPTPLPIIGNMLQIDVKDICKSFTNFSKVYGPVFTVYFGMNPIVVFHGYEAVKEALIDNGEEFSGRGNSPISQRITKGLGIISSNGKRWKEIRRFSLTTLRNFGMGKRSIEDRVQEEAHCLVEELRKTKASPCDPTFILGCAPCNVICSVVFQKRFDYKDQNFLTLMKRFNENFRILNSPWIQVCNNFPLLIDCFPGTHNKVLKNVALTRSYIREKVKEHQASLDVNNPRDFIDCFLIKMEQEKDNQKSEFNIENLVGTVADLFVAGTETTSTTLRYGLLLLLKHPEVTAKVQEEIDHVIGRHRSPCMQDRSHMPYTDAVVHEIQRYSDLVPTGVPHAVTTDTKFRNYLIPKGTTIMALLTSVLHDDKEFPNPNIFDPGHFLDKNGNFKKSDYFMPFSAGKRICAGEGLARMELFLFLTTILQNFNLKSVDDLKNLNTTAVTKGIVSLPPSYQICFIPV
The settings on record: statement of the European approved drug label; cited from earlier work.

[4] abbreviates: non-micronized opicapone 25 mg single dose, repaglinide 0.5 mg.

For the compound `CCOc1cc(CC(=O)N[C@@H](CC(C)C)c2ccccc2N2CCCCC2)ccc1C(=O)O` [Repaglinide, repaglinide], in series [1], the Tmax amounted to 30 min and the half-life is 38.4 min. Further, the total exposure AUC(0-inf) in series [1] (AUC0-inf, GM) turned out to be 11.6 ng·h/mL. For the same compound, in series [1] (AUC0-t, GM), the AUC(0-t) is 10.9 ng·h/mL. The compound further returned a peak concentration (Cmax) in series [1] (Cmax, GM) of 10.1 ng/mL.
For `Cc1c(Cl)c(C)[n+]([O-])c(Cl)c1-c1noc(-c2cc(O)c(O)c([N+](=O)[O-])c2)n1` [opicapone, 5-[3-(2,5-dichloro-4,6-dimethyl-1-oxy-pyridin-3-yl)-[1,2,4]oxadiazol-5-yl]-3-nitrobenzene-1,2-diol], in series [2] (setting [4]), the “increase in repaglinide AUC0-tlast when taken with opicapone vs. repaglinide alone” value is recorded as 9% and the “increase in repaglinide Cmax when taken with opicapone vs. repaglinide alone” value was 31%. Also, in series [2] (opicapone 25 mg, less than optimal formulation, rate but not extent of exposure increased), the “average increase in the rate of exposure to repaglinide when co-administered with opicapone” value was 30%. In addition, in series [3], the “inhibition of CYP2C8” value was “weak inhibitor”.

By Tmax is commonly meant the time at which the peak concentration occurs. What is called half-life is how long it takes for the measured level to halve. As usually defined, the AUC(0-inf) is the area under the concentration-time curve extrapolated to infinity. Usually AUC(0-t) stands for the area under the concentration-time curve up to a stated or last time point. Low values mean less exposure, high ones more exposure. The Cmax is the highest concentration seen after dosing.

These data come from patent US20210220345A1, “METHODS FOR THE ADMINISTRATION OF COMT INHIBITORS” (Neurocrine Biosciences, Inc., priority 2018, published 2021).
